The record followed here is ChEMBL document CHEMBL1146874, “Metabolism investigation leading to novel drug design 2: orally active prostacyclin mimetics. Part 5” (Bioorg Med Chem Lett, 2006).

Data set [1] can be described thus: Cmax in rat at 10 mg/kg, po. Conditions: in vivo. More on the design: dose 10 mg/kg, route oral. It is filed as ADME, organism-based.
Data set [2] can be described thus: Cmax in human at 12.5 ug, po. Type of data set: ADME, organism-based. More on the design: dose 12.5 ug, route oral. Conditions: in vivo.
The species named for the next data set is Homo sapiens. In words: Inhibition of ADP-induced platelet aggregation in human platelet rich plasma. Type of data set: functional, organism-based.
Data set [3] can be described thus: AUC in human at 12.5 ug, po. It is filed as ADME, organism-based. Conditions: plasma.
Data set [4] relates to Rattus norvegicus. Put plainly: AUC in rat at 10 mg/kg, po. It is filed as ADME, organism-based, Plasma. More on the design: dose 10 mg/kg, route oral. Conditions: in vivo.
Data set [5] is described as follows: Blood to plasma ratio in human at 12.5 ug, po. Type of data set: ADME, organism-based. Conditions: read-out: BPR.
Data set [6] can be described thus: Half life in human at 12.5 ug, po. It is filed as ADME, organism-based. Conditions: in vivo.
Data set [7] in a line: Bioavailability in human at 12.5 ug, po. Conditions: in vivo. Type of data set: ADME, organism-based.
Data set [8] is described as follows: Bioavailability in rat at 10 mg/kg, […]. Type of data set: ADME, organism-based. Conditions: in vivo.
Data set [9] in a line: Intrinsic clearance in rat liver microsomes after 60 mins. Type of data set: ADME, Microsome. Background: Liver microsomes are a subcellular fraction often used to study metabolism.
Data set [10] can be described thus: Total clearance in rat at 10 mg/kg, iv. It is filed as ADME, organism-based. Conditions: in vivo. The arrangement: dose 10 mg/kg, route intravenous.
Data set [11] in a line: Beta half life in rat at 10 mg/kg, iv. Type of data set: ADME, organism-based. More on the design: dose 10 mg/kg, route intravenous. Conditions: in vivo.
Data set [12] is filed under the species Rattus norvegicus. In words: Inhibition of ADP-induced platelet aggregation in rat platelet rich plasma. It is filed as functional, organism-based.
Data set [13] relates to Rattus norvegicus. Put plainly: Stability in orally dosed rat measured as M2 level in bile. It is filed as ADME, organism-based. Conditions: in vivo, po.
Data set [14] relates to Rattus norvegicus. In words: Stability in orally dosed rat measured as glucuronide of M2 level in bile. It is filed as ADME, organism-based. Conditions: in vivo, po.

pIC50: −log10 of the molar value.

For orientation: Cmax means the peak of the concentration-time curve. By pIC50 is commonly meant the negative decadic logarithm of the IC50, by convention in mol/L. The term AUC denotes the area under the concentration-time curve, a measure of exposure. High values mean more exposure, low ones less exposure. As usually defined, the half-life is the time needed for the level to fall by half in the phase considered. Read a low half-life as fast loss. Usually bioavailability stands for dose-corrected exposure relative to a reference, in per cent. High values mean much systemic uptake, low ones little systemic uptake. As usually defined, the CLint scaled is the capacity of the preparation to metabolise the compound, expressed as a volume cleared per time. Higher therefore signals faster metabolism. In the case of `O=C(O)COc1cccc2c1CC[C@](O)(COC(=O)N(c1ccccc1)c1ccccc1)C2`, the Cmax in [1] was found to be 282 ng/mL; in data set [2], 0.157 ng/mL. The same compound showed a negative-log IC50 (pIC50) in the data set filed under Homo sapiens of 7.74. The AUC in data set [3] worked out at 0.327 ng·h/mL; in the data set with Rattus norvegicus [4], 601 ng·h/mL. Also, in [5], the blood plasma ratio was determined as 0.57. In [6], this compound had a half-life of 1.5 h. The results for the bioavailability in data set [7] and in data set [8] were 55% and 9.6%, respectively. For the same compound, the intrinsic clearance (CLint scaled) in data set [9] turned out to be 31.9 mL/min/kg.
What is called clearance is the volume of plasma or blood freed of the substance per unit of time. A lower clearance goes with a low capacity for elimination. Compound `O=C(O)COc1cccc2c1CC[C@](O)(COC(=O)N(c1ccc(F)cc1)c1ccc(F)cc1)C2` came in with a Cmax in data set [1] of 575 ng/mL. This compound also returned a clearance in data set [10] of 30.3 mL/min/kg. Also, the results for the negative-log IC50 (pIC50) in the data set listed under Homo sapiens and in the data set listed under Rattus norvegicus [12] were 7.23 and < 5.00, respectively. This compound also registered an AUC in the data set with Rattus norvegicus [4] of 1610 ng·h/mL. Besides, in data set [11], the half-life is 3 h. Also, the bioavailability in data set [8] was determined as 29.5%. The CLint scaled in data set [9] stood at 4.6 mL/min/kg.
`O=C(O)COc1cccc2c1CC[C@](O)(COC(=O)N(c1ccccc1F)c1ccccc1F)C2` showed a pIC50 in the data set listed under Homo sapiens of 7.20. The CLint scaled in data set [9] was 44.8 mL/min/kg.
In data set [1], `O=C(O)COc1cccc2c1CC[C@](O)(COC(=O)N(c1ccccc1)c1ccc(F)cc1)C2` had a Cmax of 434 ng/mL. In data set [10], the clearance came to 32.9 mL/min/kg. Besides, the negative logarithm of the IC50 (pIC50) was 7.89 in the data set filed under Homo sapiens and 5.34 in the data set listed under Rattus norvegicus [12]. In the data set with Rattus norvegicus [4], this compound had an exposure (AUC) of 961 ng·h/mL. This compound gave a half-life in [11] of 1.6 h. The bioavailability in data set [8] came to 19.2%. The CLint scaled in [9] was 10.3 mL/min/kg.
With `O=C(O)COc1cccc2c1CC[C@](O)(COC(=O)N(c1ccccc1)c1ccc(Br)cc1)C2`, the negative logarithm of the IC50 (pIC50) was 7.31 in the data set filed under Homo sapiens and 5.19 in the data set listed under Rattus norvegicus [12]. For the same compound, in data set [9], the intrinsic metabolic clearance (CLint scaled) was found to be 12.3 mL/min/kg.
With `O=C(O)COc1cccc2c1C(O)C[C@](O)(COC(=O)N(c1ccccc1)c1ccccc1)C2` (stereo partly drawn), the results for the negative-log IC50 (pIC50) in the data set filed under Homo sapiens and in the data set filed under Rattus norvegicus [12] were 6.70 and < 5.00, respectively.
For the compound `O=C(O)COc1cccc2c1CC[C@](O)(COC(=O)N(c1ccc(F)cc1)c1ccccc1F)C2`, the results for the negative-log IC50 (pIC50) in the data set listed under Homo sapiens and in the data set filed under Rattus norvegicus [12] were 7.66 and 5.29, respectively. In [9], the intrinsic clearance (CLint scaled) was found to be 11.8 mL/min/kg.
On the same counts, the results for `O=C(O)COc1cccc2c1CC[C@](O)(COC(=O)N(c1ccc(F)cc1)c1cccc(F)c1)C2` are 7.60, < 5.00 and 11.7 mL/min/kg.
For `O=C(O)COc1cccc2c1CC[C@](O)(COC(=O)N(c1ccccc1)c1ccc(O)cc1)C2`, the Stability in the data set with Rattus norvegicus [13] came out at 12%; in the data set with Rattus norvegicus [14], 33%. Also, the pIC50 was 7.46 in the data set listed under Homo sapiens and 5.60 in the data set filed under Rattus norvegicus [12].
As to `O=C(O)COc1cccc2c1CC[C@](O)(COC(=O)N(c1cccc(F)c1)c1cccc(F)c1)C2`, the results for the pIC50 in the data set filed under Homo sapiens and in the data set filed under Rattus norvegicus [12] were 7.85 and < 5.00, respectively. The same compound displayed a CLint scaled in [9] of 13.5 mL/min/kg.
Take `O=C(O)COc1cccc2c1CC[C@](O)(COC(=O)N(c1ccccc1)c1ccccc1)[C@H]2O`: the figures for the pIC50 in the data set filed under Homo sapiens and in the data set listed under Rattus norvegicus [12] were 5.89 and < 5.00, respectively.
